In article PMC10600247, “Impact of C- and N-terminal protection on the stability, metal chelation and antimicrobial properties of calcitermin” (Scientific Reports, 2023):
Residues, ends and D or L forms follow the SMILES beside them.

What was measured:
E. coli (ATCC 25922) = test: In vitro anti-E. coli CFU assay; type: cell-based, Escherichia coli; settings: pH 5.4; for mean CFU number ± S.D.: per 0.1 mL
Procedure: (§1) All microbes were grown at 37 °C in Tryptic Soy Broth (TSB; Biolife, Milan, Italy) or Tryptic Soy Agar plates (TSA, Biolife, Milan, Italy). Peptides were tested at a final concentration C = 0.128, 0.064, 0.032 mg/mL, in the presence or absence of ZnCl2 or CuCl2, at a M:L molar ratio 0.9:1. Briefly, all the microbes were expanded in TSB at 37 °C under agitation for 12 h and then sub-cultured by 1:10 dilution in TSB under the same conditions until reaching OD600nm = 0.3–0.4, as measured by spectrophotometric reading using a GENESYS 10S UV–Vis spectrophotometer (Thermo Scientific, Milan, Italy), corresponding to 0.9–1.2 × 10^7 colony forming units (CFU) per mL, 1.5–2 × 10^8 CFU/mL and 2.4–3.2 × 10^8 CFU/mL, for C. albicans, S. aureus and E. coli respectively. The cultures were then centrifuged at 4500 rpm for 10 min in a SL 8 centrifuge (TX-150 Rotor) (Thermo Scientific, Milan, Italy), and the cellular pellets were washed with PBS pH 5.4. Pelletized cultures were then suspended in 10 mL of PBS pH 5.4, then the suspensions were diluted to a final concentration of 10^4 CFU/mL. Aliquots of 100 µl (corresponding to 10^3 CFU) were seeded in each well of a 96-wells plate. 3 µl of TSB at pH 5.4 were added to each well to obtain a final 1.5% TSB concentration in the culture medium. Peptides were serially diluted in PBS pH 5.4 to C = 0.257, 0.128, and 0.064 mg/mL. ZnCl2 and CuCl2 solutions were added where requested to obtain a M:L ratio 0.9:1. 100 µl of the prepared peptides ± ZnCl2/CuCl2 solutions were then added to each well, obtaining the final 0.128, 0.064 and 0.032 mg/mL peptide concentrations in a total 0.2 mL volume. PBS alone and PBS + ZnCl2/CuCl2 solutions were included as controls. The plates were incubated at 37 °C on a platform rocker with slow stirring for 3 and 24 h. At the end of the incubation times, 100 µl aliquots were taken from each sample and diluted in PBS pH 5.4 to be seeded on TSA plates. Specifically, aliquots were diluted 1:10 at 3 h, and 1:200, 1:100,000 and 1:10 at 24 h, for C. albicans, E. coli, and S. aureus respectively. After incubation for 24 h at 37 °C, grown CFUs were enumerated. Samples were assayed in triplicate in two independent experiments. Student’s t-test was used for the evaluation of significance in biological tests; a p value ≤ 0.05 was considered significant.

C. albicans (ATCC 10231) = test: In vitro antifungal CFU assay; type: cell-based, Candida albicans; settings: pH 5.4; for mean CFU number ± S.D.: per 0.1 mL
Procedure: as §1

[1] = peptide 0.032 mg/mL + CuCl2 (0.9:1), 3 h
[2] = peptide 0.032 mg/mL + CuCl2 (0.9:1), 24 h
[3] = peptide 0.032 mg/mL + ZnCl2 (0.9:1), 3 h
[4] = peptide 0.032 mg/mL + ZnCl2 (0.9:1), 24 h
[5] = peptide 0.064 mg/mL + CuCl2 (0.9:1), 3 h
[6] = peptide 0.064 mg/mL + CuCl2 (0.9:1), 24 h
[7] = peptide 0.064 mg/mL + ZnCl2 (0.9:1), 3 h
[8] = peptide 0.064 mg/mL + ZnCl2 (0.9:1), 24 h
[9] = peptide 0.128 mg/mL + CuCl2 (0.9:1), 3 h
[10] = peptide 0.128 mg/mL + CuCl2 (0.9:1), 24 h
[11] = peptide 0.128 mg/mL + ZnCl2 (0.9:1), 3 h
[12] = peptide 0.128 mg/mL + ZnCl2 (0.9:1), 24 h
[13] = peptide alone 0.032 mg/mL, 24 h
[14] = peptide alone 0.064 mg/mL, 24 h
[15] = peptide alone 0.128 mg/mL, 24 h

## CC[C@H](C)[C@H](NC(=O)[C@H](C)NC(=O)[C@@H](N)C(C)C)C(=O)N[C@@H](C)C(=O)N[C@@H](CC(C)C)C(=O)N[C@@H](CCCCN)C(=O)N[C@@H](C)C(=O)N[C@@H](C)C(=O)N[C@@H](Cc1c[nH]cn1)C(=O)N[C@@H](Cc1ccc(O)cc1)C(=O)N[C@@H](Cc1c[nH]cn1)C(=O)N[C@H](C(=O)N[C@@H](Cc1c[nH]cn1)C(=O)N[C@@H](CCCCN)C(=O)N[C@@H](CCC(=O)O)C(N)=O)[C@@H](C)O [L3, VAIALKAAHYHTHKE-NH2] (H-VAIALKAAHYHTHKE-NH2)
E. coli (ATCC 25922); [1]
  mean CFU number ± S.D.: 509 ± 100 CFU
E. coli (ATCC 25922); [2]
  CFU decrease/increase with respect to untreated controls: +7%
  mean CFU number ± S.D.: 184 ± 17 CFU
E. coli (ATCC 25922); [3]
  mean CFU number ± S.D.: 439 ± 91 CFU
E. coli (ATCC 25922); [4]
  CFU decrease/increase with respect to untreated controls: +17%
  mean CFU number ± S.D.: 202 ± 23 CFU
E. coli (ATCC 25922); [5]
  mean CFU number ± S.D.: 198 ± 117 CFU
E. coli (ATCC 25922); [6]
  CFU decrease/increase with respect to untreated controls: -20%
  mean CFU number ± S.D.: 138 ± 48 CFU
E. coli (ATCC 25922); [7]
  mean CFU number ± S.D.: 224 ± 4 CFU
E. coli (ATCC 25922); [8]
  CFU decrease/increase with respect to untreated controls: +8%
  mean CFU number ± S.D.: 186 ± 21 CFU
E. coli (ATCC 25922); [9]
  mean CFU number ± S.D.: 191 ± 7 CFU
E. coli (ATCC 25922); [10]
  mean CFU number ± S.D.: 102 ± 20 CFU
E. coli (ATCC 25922); [11]
  mean CFU number ± S.D.: 59 ± 9 CFU
E. coli (ATCC 25922); [12]
  CFU decrease/increase with respect to untreated controls: +9%
  mean CFU number ± S.D.: 187 ± 17 CFU
E. coli (ATCC 25922); peptide alone 0.032 mg/mL, 3 h
  CFU decrease/increase with respect to untreated controls: -23%
  mean CFU number ± S.D.: 810 ± 100 CFU
E. coli (ATCC 25922); [13]
  CFU decrease/increase with respect to untreated controls: +17%
  mean CFU number ± S.D.: 202 ± 18 CFU
E. coli (ATCC 25922); peptide alone 0.064 mg/mL, 3 h
  CFU decrease/increase with respect to untreated controls: -30%
  mean CFU number ± S.D.: 737 ± 147 CFU
E. coli (ATCC 25922); [14]
  CFU decrease/increase with respect to untreated controls: -3%
  mean CFU number ± S.D.: 166 ± 8 CFU
E. coli (ATCC 25922); peptide alone 0.128 mg/mL, 3 h
  CFU decrease/increase with respect to untreated controls: -15%
  mean CFU number ± S.D.: 893 ± 113 CFU
E. coli (ATCC 25922); [15]
  CFU decrease/increase with respect to untreated controls: +12%
  mean CFU number ± S.D.: 193 ± 9 CFU
C. albicans (ATCC 10231); [1]
  CFU decrease/increase with respect to untreated controls: +23%
  mean CFU number ± S.D.: 187 ± 20 CFU
C. albicans (ATCC 10231); [2]
  CFU decrease/increase with respect to untreated controls: -19%
  mean CFU number ± S.D.: 2,042 ± 137 CFU
C. albicans (ATCC 10231); [3]
  CFU decrease/increase with respect to untreated controls: +6%
  mean CFU number ± S.D.: 160 ± 25 CFU
C. albicans (ATCC 10231); [4]
  CFU decrease/increase with respect to untreated controls: +2%
  mean CFU number ± S.D.: 2,557 ± 251 CFU
C. albicans (ATCC 10231); [5]
  CFU decrease/increase with respect to untreated controls: +59%
  mean CFU number ± S.D.: 241 ± 23 CFU
C. albicans (ATCC 10231); [6]
  CFU decrease/increase with respect to untreated controls: -8%
  mean CFU number ± S.D.: 2,315 ± 546 CFU
C. albicans (ATCC 10231); [7]
  CFU decrease/increase with respect to untreated controls: -2%
  mean CFU number ± S.D.: 148 ± 22 CFU
C. albicans (ATCC 10231); [8]
  mean CFU number ± S.D.: 1,596 ± 145 CFU
C. albicans (ATCC 10231); [9]
  CFU decrease/increase with respect to untreated controls: +53%
  mean CFU number ± S.D.: 230 ± 3 CFU
C. albicans (ATCC 10231); [10]
  CFU decrease/increase with respect to untreated controls: -33%
  mean CFU number ± S.D.: 1,687 ± 111 CFU
C. albicans (ATCC 10231); [11]
  mean CFU number ± S.D.: 71 ± 17 CFU
C. albicans (ATCC 10231); [12]
  mean CFU number ± S.D.: 605 ± 97 CFU
C. albicans (ATCC 10231); peptide alone 0.032 mg/mL, 3 h
  CFU decrease/increase with respect to untreated controls: +25%
  mean CFU number ± S.D.: 189 ± 23 CFU
C. albicans (ATCC 10231); [13]
  CFU decrease/increase with respect to untreated controls: -10%
  mean CFU number ± S.D.: 2,263 ± 251 CFU
C. albicans (ATCC 10231); peptide alone 0.064 mg/mL, 3 h
  CFU decrease/increase with respect to untreated controls: +20%
  mean CFU number ± S.D.: 182 ± 27 CFU
C. albicans (ATCC 10231); [14]
  CFU decrease/increase with respect to untreated controls: -12%
  mean CFU number ± S.D.: 2,204 ± 170 CFU
C. albicans (ATCC 10231); peptide alone 0.128 mg/mL, 3 h
  CFU decrease/increase with respect to untreated controls: -5%
  mean CFU number ± S.D.: 144 ± 11 CFU
C. albicans (ATCC 10231); [15]
  CFU decrease/increase with respect to untreated controls: -14%
  mean CFU number ± S.D.: 2,164 ± 101 CFU
